#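 Compound exposure: 48 hours, 5 concentrations, 96-well plates. Abbreviation: GI50, concentration required for 50% inhibition of growth.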 Active and inactive are the calls of the source. Rule as the data show it: active = GI50 up to about 1.1 µM and inactive = higher.
# Legend:
# Experiment in all cases: NCI tumour cell line growth inhibition, 48 h
# DMS-273 = test system: DMS-273
# SNB-78 = test system: SNB-78
# M19-MEL = test system: M19-MEL
# DMS-114 = test system: DMS-114
# XF498 = test system: XF498
# LXFL 529 = test system: LXFL 529
# HOP-18 = test system: HOP-18
# KM-20L2 = test system: KM-20L2
# RXF 631 = test system: RXF 631
Structure (SMILES),GI50 (DMS-273),GI50 (SNB-78),GI50 (M19-MEL),GI50 (DMS-114),GI50 (XF498),GI50 (LXFL 529),GI50 (HOP-18),GI50 (KM-20L2),GI50 (RXF 631)
CC#CC1/C(=C\C(=O)OC)CCCC1O (configuration not stated),> 100 µM (inactive),> 100 µM (inactive),> 100 µM (inactive),> 100 µM (inactive),> 100 µM (inactive),–,–,–,–
COC(=O)C(C(=O)C(=O)Nc1ccccc1C)c1nc2ccc([N+](=O)[O-])cc2nc1O (configuration not stated),> 100 µM (inactive),> 100 µM (inactive),> 100 µM (inactive),> 100 µM (inactive),> 100 µM (inactive),> 100 µM (inactive),> 100 µM (inactive),> 100 µM (inactive),–
CC1(C)OC(C[C@]2(C#N)C[C@H](CCl)OC(C)(C)O2)C[C@@H](C[C@]2(C#N)C[C@H](CCl)OC(C)(C)O2)O1 (some centres not stated),> 100 µM (inactive),> 100 µM (inactive),> 100 µM (inactive),–,> 100 µM (inactive),> 100 µM (inactive),> 100 µM (inactive),> 100 µM (inactive),–
O=c1/c(=C/c2ccco2)sc2nc3ccccc3n12,86.5 µM (inactive),> 10 µM (inactive),> 10 µM (inactive),> 10 µM (inactive),> 10 µM (inactive),> 10 µM (inactive),> 100 µM (inactive),> 10 µM (inactive),> 10 µM (inactive)
CSc1ccc2c(cc1=O)[C@@H](NC(=O)c1cc(O)c(O)c(O)c1)CCc1cc(O)c(O)c(O)c1-2,20.5 µM (inactive),31 µM (inactive),14.6 µM (inactive),–,15.4 µM (inactive),18.9 µM (inactive),–,68.7 µM (inactive),15.5 µM (inactive)
O=C1C(Cl)=C(Cl)C(=O)N1c1ccc(Cl)c(Cl)c1Cl,> 100 µM (inactive),> 100 µM (inactive),88.3 µM (inactive),32.7 µM (inactive),–,28.1 µM (inactive),> 100 µM (inactive),> 100 µM (inactive),> 100 µM (inactive)
NC(=O)COc1ccc(Br)cc1Br,> 100 µM (inactive),> 100 µM (inactive),> 100 µM (inactive),> 100 µM (inactive),–,> 100 µM (inactive),> 100 µM (inactive),> 100 µM (inactive),–
O=c1[nH]c2ccccc2nc1CBr,1.61 µM (inactive),16.1 µM (inactive),10.2 µM (inactive),–,1.9 µM (inactive),1.12 µM (active),6.93 µM (inactive),14.1 µM (inactive),–
N#CC1CCCCC1NC1(C#N)CCCCC1 (configuration not stated),> 100 µM (inactive),> 100 µM (inactive),–,> 100 µM (inactive),> 100 µM (inactive),> 100 µM (inactive),–,> 100 µM (inactive),–
CC(=O)OC[C@@H](COC(=O)/C=C/c1ccc(O)cc1)OC1OC(CO)C(O)C(O)C1O (some centres not stated),–,> 100 µM (inactive),> 100 µM (inactive),–,> 100 µM (inactive),> 100 µM (inactive),> 100 µM (inactive),> 100 µM (inactive),> 100 µM (inactive)
C=C1C(=O)C23CC1CCC2C12CO[C@@]3(O)[C@@H](O)C1C(C)(C)C=CC2=O (some centres not stated),0.568 µM (active),0.718 µM (active),0.824 µM (active),–,0.791 µM (active),–,1.19 µM (inactive),1.44 µM (inactive),1.03 µM (active)
O=C1OCCC1C(O)C1c2ccccc2-c2ccccc21 (configuration not stated),–,> 100 µM (inactive),> 100 µM (inactive),> 100 µM (inactive),17.8 µM (inactive),> 100 µM (inactive),–,–,–
C/C=C1\CN2CCc3c([nH]c4ccccc34)C2CC1C(=O)OC (configuration not stated),> 322 µM (inactive),–,–,–,> 322 µM (inactive),> 322 µM (inactive),–,> 322 µM (inactive),–
S=c1c2ccccc2c(=S)n2n1CC=CC2,> 100 µM (inactive),> 100 µM (inactive),> 100 µM (inactive),> 100 µM (inactive),–,> 100 µM (inactive),> 100 µM (inactive),> 100 µM (inactive),> 100 µM (inactive)
Cc1[nH]c(=O)[nH]c(=O)c1N(CCF)CCCl [FLUORODOPAN],–,322 µM (inactive),–,193 µM (inactive),–,–,–,359 µM (inactive),–
CC(=O)NC(CCCNC(=O)OCc1ccccc1)C(=O)NCc1ccccc1 (configuration not stated),> 100 µM (inactive),–,> 100 µM (inactive),> 100 µM (inactive),> 100 µM (inactive),> 100 µM (inactive),–,> 100 µM (inactive),–
O=C(O)C12C3C4C1C1C2C3C41I (configuration not stated),> 100 µM (inactive),> 100 µM (inactive),> 100 µM (inactive),> 100 µM (inactive),> 100 µM (inactive),> 100 µM (inactive),–,> 100 µM (inactive),> 100 µM (inactive)
CCCCCCc1cc2c(C)c(C)c(=O)oc2cc1OCCCOc1cc2oc(=O)c(C)c(C)c2cc1CCCCCC,> 100 µM (inactive),> 100 µM (inactive),> 100 µM (inactive),> 100 µM (inactive),> 100 µM (inactive),> 100 µM (inactive),> 100 µM (inactive),> 100 µM (inactive),–
CCOC(=O)C(C)(C)Oc1ccc2c(C)c(-c3ccc(Cl)cc3)c(=O)oc2c1,37.6 µM (inactive),–,54.2 µM (inactive),20.4 µM (inactive),20.3 µM (inactive),34.1 µM (inactive),–,33.2 µM (inactive),32.6 µM (inactive)
Cc1cc(=O)oc2c1cc(OCC(=O)OCCN1CCCCC1)c1occ(C)c12,> 100 µM (inactive),> 100 µM (inactive),> 100 µM (inactive),> 100 µM (inactive),> 100 µM (inactive),> 100 µM (inactive),> 100 µM (inactive),> 100 µM (inactive),–
Cc1ccc2nc3c(C(=O)NCCN(C)C)cccc3nc2c1,2.84 µM (inactive),7.31 µM (inactive),2.44 µM (inactive),2.74 µM (inactive),–,7.38 µM (inactive),> 27.1 µM (inactive),3.53 µM (inactive),–
CC1(C)CCC(=O)c2c(O)ccc(O)c21,> 100 µM (inactive),> 100 µM (inactive),> 100 µM (inactive),–,–,42.8 µM (inactive),–,83.4 µM (inactive),–
CNC(=O)N(CCCC(NC(C)=O)C(=O)NCc1ccccc1)Cc1ccccc1 (configuration not stated),> 100 µM (inactive),> 100 µM (inactive),> 100 µM (inactive),> 100 µM (inactive),> 100 µM (inactive),> 100 µM (inactive),–,> 100 µM (inactive),–
O=C(NC(=O)c1ccccc1[N+](=O)[O-])Nc1ccc(Oc2ncc(Cl)cn2)c([N+](=O)[O-])c1,0.0738 µM (active),0.252 µM (active),0.135 µM (active),0.0865 µM (active),0.818 µM (active),0.217 µM (active),> 100 µM (inactive),0.121 µM (active),0.286 µM (active)
CCC1(OC(C)=O)C(=O)OCc2c1cc1n(c2=O)Cc2cc3ccccc3nc2-1 (configuration not stated),0.388 µM (active),> 40.9 µM (inactive),2.48 µM (inactive),0.611 µM (active),17.9 µM (inactive),15 µM (inactive),> 34.8 µM (inactive),7.01 µM (inactive),3.85 µM (inactive)

# From ChEMBL document CHEMBL1201862, “PubChem BioAssay data set” (2004)
